According to patent US9120833B2, “Polyfluoroalkylphosphonic acid ester and process for producing the same” (Unimatec Co., Ltd., priority 2009, dated 2015):

Details: 3 wt. % in base oil CnF2n+1(CF2CF2CF2O)mCnF2n+1 (viscosity at 40° C.: 210 mm^2/s), stirred under heating, stored at 25° C. for 24 hours
Procedure: The phosphonic acid ester (3 wt. %) obtained in Example 1 or 7 was added to a base oil of the formula: CnF2n+1(CF2CF2CF2O)mCnF2n+1 (viscosity at 40° C.: 210 mm^2/s), and the mixture was sufficiently stirred under heating. After the mixture was stored at 25° C. for 24 hours, the solubility of the phosphonic acid ester in the base oil was visually observed.

Question: With CCOP(=O)(CCC(F)(F)C(F)(F)C(F)(F)C(F)(F)C(F)(F)CC(F)(F)C(F)(F)C(F)(F)C(F)(F)F)OCC [Example 1, CF3(CF2)3(CH2CF2)(CF2CF2)2(CH2CH2)P(O)(OCH2CH3)2] as the compound, how does the “solubility of the phosphonic acid ester in the base oil (visually observed)” value read?
Answer: dissolved into an almost transparent solution
